# Measured values as given in patent US20150087673A1, “METHODS FOR USING AND BIOMARKERS FOR AMPK-ACTIVATING COMPOUNDS” (RIGEL PHARMACEUTICALS, INC., priority 2013, published 2015).
# Test system: AMPK
# Experiment: AMPK activation assay (enzyme-linked immunosorbent assay)
# Type: cell-based
# Protocol: Compounds were assayed for their ability to activate AMPK using an enzyme-linked immunosorbent assay. Reagents and procedures for measuring AMPK activation are well known and kits for AMPK activation assays are commercially available.
row,EC50 [nM],SMILES
1,< 500,"N#Cc1ccc(CN2CCC(NC(=O)c3ccc(C(=O)N4CCN(C(=O)c5ccc(F)cc5)CC4)cn3)CC2)cc1 [Compound 76, N-(1-(4-cyanobenzyl)piperidin-4-yl)-5-(4-(4-fluorobenzoyl)piperazine-1-carbonyl)picolinamide]"
2,1000 to 5000,"CC(=O)Nc1cccc(OC2CCN(C(=O)c3ccc(C(=O)NC4CCN(Cc5ccc(F)cc5)CC4)cn3)CC2)c1 [Compound 413, 6-(4-(3-acetamidophenoxy)piperidine-1-carbonyl)-N-(1-(4-fluorobenzyl)piperidin-4-yl)nicotinamide]"
3,< 500,"COc1ccc(Oc2ccc(NC(=O)c3ccc(C(=O)N4CCN(Cc5ccc(F)cc5)CC4)cn3)cc2)cc1 [Compound 54, 5-(4-(4-fluorobenzyl)piperazine-1-carbonyl)-N-(4-(4-methoxyphenoxy)phenyl)picolinamide]"
4,> 10000,"COc1ccc(OC2CCCN(C(=O)c3ccc(C(=O)NC4CCN(Cc5ccc(C#N)cc5)CC4)nc3)C2)cc1 (centres unmarked) [Compound 274, N-(1-(4-cyanobenzyl)piperidin-4-yl)-5-(3-(4-methoxyphenoxy)piperidine-1-carbonyl)picolinamide]"
5,1000 to 5000,"N#Cc1ccc(CN2CCC(NC(=O)c3ccc(C(=O)N4CCCCC4Cc4ccc(F)cc4)cn3)CC2)cc1 (centres unmarked) [Compound 153, N-(1-(4-cyanobenzyl)piperidin-4-yl)-5-(2-(4-fluorobenzyl)piperidine-1-carbonyl)picolinamide]"
6,< 500,"Cc1ccc(Oc2ccc(NC(=O)c3ccc(C(=O)N4CCN(Cc5ccc(F)cc5)CC4)cn3)cc2)cc1 [Compound 53, 5-(4-(4-fluorobenzyl)piperazine-1-carbonyl)-N-(4-(4-methylphenoxy)phenyl)picolinamide]"
7,< 500,"O=C(NC1CCN(Cc2ccc(OC(F)(F)F)cc2)CC1)c1ccc(C(=O)N2CCC(S(=O)(=O)c3ccc(F)cc3)CC2)nc1 [Compound 470, 6-(4-(4-fluorophenylsulfonyl)piperidine-1-carbonyl)-N-(1-(4-(trifluoromethoxy)benzyl)piperidin-4-yl)nicotinamide]"
8,< 500,"N#Cc1ccc(Oc2ccc(NC(=O)c3ccc(C(=O)N4CCN(Cc5ccc(F)cc5)CC4)cn3)cc2)cc1 [Compound 59, N-(4-(4-cyanophenoxy)phenyl)-5-(4-(4-fluorobenzyl)piperazine-1-carbonyl)picolinamide]"
9,< 500,"CS(=O)(=O)c1ccc(C(=O)C2CCN(C(=O)c3ccc(C(=O)Nc4ccc(Oc5ccc(F)cc5)nc4)nc3)CC2)cc1 [Compound 232, N-(6-(4-fluorophenoxy)pyridin-3-yl)-5-(4-(4-(methylsulfonyl)benzoyl)piperidine-1-carbonyl)picolinamide]"
10,< 500,"N#Cc1ccc(Oc2ccc(NC(=O)c3ccc(C(=O)N4CCN(Cc5ccc(F)cc5)CC4)nc3)cn2)cc1 [Compound 476, N-(6-(4-cyanophenoxy)pyridin-3-yl)-6-(4-(4-fluorobenzyl)piperazine-1-carbonyl)nicotinamide]"
11,500 to 1000,"N#Cc1ccc(CN2CCC(NC(=O)c3ccc(C(=O)NCCOc4ccc(F)cc4)cn3)CC2)cc1 [Compound 149, N2-(1-(4-cyanobenzyl)piperidin-4-yl)-N5-(2-(4-fluorophenoxy)ethyl)pyridine-2,5-dicarboxamide]"
12,< 500,"COc1ccc(C(=O)C2CCN(C(=O)c3ccc(C(=O)NC4CCN(Cc5ccc(F)cc5)CC4)cn3)CC2)cc1 [Compound 317, N-(1-(4-fluorobenzyl)piperidin-4-yl)-6-(4-(4-methoxybenzoyl)piperidine-1-carbonyl)nicotinamide]"
13,< 500,"CC(=O)c1ccc(Oc2ccc(NC(=O)c3ccc(C(=O)N4CCC(Oc5ccc(S(C)(=O)=O)cc5)CC4)cn3)cn2)cc1 [Compound 259, N-(6-(4-acetylphenoxy)pyridin-3-yl)-5-(4-(4-(methylsulfonyl)phenoxy)piperidine-1-carbonyl)picolinamide]"
14,1000 to 5000,"N#Cc1ccc(CN2CCC3(CCN(C(=O)c4ccc(C(=O)N5CCN(Cc6ccc(F)cc6)CC5)cn4)CC3)C2)cc1 [Compound 15, 4-((8-(5-(4-(4-fluorobenzyl)piperazine-1-carbonyl)picolinoyl)-2,8-diazaspiro[4.5]decan-2-yl)methyl)benzonitrile]"
15,< 500,"N#Cc1cccc(Oc2ccc(NC(=O)c3ccc(C(=O)N4CCN(Cc5ccc(F)cc5)CC4)cn3)cn2)c1 [Compound 64, 5-(4-(4-fluorobenzyl)piperazine-1-carbonyl)-(6-(3-cyanophenoxy)pyridin-3-yl)picolinamide]"
16,< 500,"N#Cc1ccc(N2CCC(NC(=O)c3ccc(C(=O)N4CCN(Cc5ccc(F)cc5)CC4)nc3)CC2)cc1 [Compound 417, N-(1-(4-cyanophenyl)piperidin-4-yl)-6-(4-(4-fluorobenzyl)piperazine-1-carbonyl)nicotinamide]"
17,< 500,"O=C(Nc1ccc(Oc2ccc(F)cc2)nc1)c1ccc(C(=O)N2CCC(Oc3ccc(S(F)(F)(F)(F)F)cc3)CC2)nc1 [Compound 496, N-(6-(4-fluorophenoxy)pyridin-3-yl)-6-(4-(4-(pentafluorosulfanyl)phenoxy)piperidine-1-carbonyl)nicotinamide]"

# Continued, molecule first:
row,SMILES,EC50 [nM]
1,"N#Cc1ccc(CN2CCC(NC(=O)c3ccc(C(=O)N4CCC(Oc5ccc(C#N)cc5)CC4)nc3)CC2)cc1 [Compound 323, N-(1-(4-cyanobenzyl)piperidin-4-yl)-6-(4-(4-cyanophenoxy)piperidine-1-carbonyl)nicotinamide]",< 500
2,"O=C(NC1CCN(Cc2ccc(OC(F)(F)F)cc2)CC1)c1ccc(C(=O)N2CCC(Oc3ccc(S(=O)(=O)C4CC4)cc3)CC2)nc1 [Compound 249, 6-(4-(4-(cyclopropylsulfonyl)phenoxy)piperidine-1-carbonyl)-N-(1-(4-(trifluoromethoxy)benzyl)piperidin-4-yl)nicotinamide]",< 500
3,"COc1ccc(OC2CCN(C(=O)c3ccc(C(=O)N[C@H]4CC[C@@H](Oc5ccc(C(F)(F)F)cc5)CC4)nc3)CC2)cc1 [Compound 191, 5-(4-(4-methoxyphenoxy)piperidine-1-carbonyl)-N-((cis)-4-(4-(trifluoromethyl)phenoxy)cyclohexyl) picolinamide]",< 500
4,"N#Cc1ccc(CN2CCC(NC(=O)c3ccc(C(=O)N4CCC(C(=O)c5cccs5)CC4)cn3)CC2)cc1 [Compound 419, N-(1-(4-cyanobenzyl)piperidin-4-yl)-5-(4-(thiophene-2-carbonyl)piperidine-1-carbonyl)picolinamide]",< 500
5,"O=C(NC1CCN(Cc2cc(F)cc(F)c2)CC1)c1ccc(C(=O)N2CCC(C(=O)c3ccc(F)c(F)c3)CC2)cn1 [Compound 298, 5-(4-(3,4-difluorobenzoyl)piperidine-1-carbonyl)-N-(1-(3,5-difluorobenzyl)piperidin-4-yl)picolinamide]",< 500
6,"CSc1ccc(C(=O)C2CCN(C(=O)c3ccc(C(=O)NC4CCN(Cc5ccc(C#N)cc5)CC4)nc3)CC2)cc1 [Compound 372, N-(1-(4-cyanobenzyl)piperidin-4-yl)-5-(4-(4-(methylthio)benzoyl)piperidine-1-carbonyl)picolinamide]",< 500
7,"COc1ccc(C(=O)C2CCN(C(=O)c3ccc(C(=O)N[C@@H]4CCN(Cc5ccc(OC(F)(F)F)cc5)C[C@@H]4F)cn3)CC2)cc1 (relative stereo) [Compound 461, N-((cis)-3-fluoro-1-(4-(trifluoromethoxy)benzyl)piperidin-4-yl)-6-(4-(4-methoxybenzoyl)piperidine-1-carbonyl)nicotinamide]",< 500
8,"N#Cc1ccc(CN2CCC(NC(=O)c3ccc(C(=O)N4CCC(Oc5ccc(N)cc5)CC4)nc3)CC2)cc1 [Compound 364, 6-(4-(4-aminophenoxy)piperidine-1-carbonyl)-N-(1-(4-cyanobenzyl)piperidin-4-yl)nicotinamide]",< 500
9,"N#Cc1ccc(CN2CCC(NC(=O)c3ccc(C(=O)N4CCC(Oc5cccnc5)CC4)cn3)CC2)cc1 [Compound 283, N-(1-(4-cyanobenzyl)piperidin-4-yl)-5-(4-(pyridin-3-yloxy)piperidine-1-carbonyl)picolinamide]",< 500
10,"COc1ccc(C(=O)C2CCN(C(=O)c3ncc(C(=O)NC4CCN(Cc5ccc(C#N)cc5)CC4)cc3CCCNC(=O)OC(C)(C)C)CC2)cc1 [Compound 416, tert-butyl 3-(5-(1-(4-cyanobenzyl)piperidin-4-ylcarbamoyl)-2-(4-(4-methoxybenzoyl)piperidine-1-carbonyl)pyridin-3-yl)propylcarbamate]",1000 to 5000
11,"COc1ccc(OC2CCN(C(=O)c3ccc(C(=O)N[C@H]4CC[C@@H](Oc5ccc(C#N)cc5)CC4)nc3)CC2)cc1 [Compound 174, N-((cis)-4-(4-cyanophenoxy)cyclohexyl)-5-(4-(4-methoxyphenoxy)piperidine-1-carbonyl)picolinamide]",< 500
12,"COc1ccc(C(=O)C2CCN(C(=O)c3ccc(C(=O)N[C@@H]4CCN(Cc5ccc(OC(F)(F)F)cc5)C[C@H]4F)cn3)CC2)cc1 (relative stereo) [Compound 350, N-((trans)-3-fluoro-1-(4-(trifluoromethoxy)benzyl)piperidin-4-yl)-6-(4-(4-methoxybenzoyl)piperidine-1-carbonyl)nicotinamide]",< 500
13,"COc1ccc(O[C@H]2CC[C@@H](NC(=O)c3ccc(C(=O)N4CCC(Oc5ccc(C(F)(F)F)cc5)CC4)cn3)CC2)cc1 [Compound 185, N-((cis)-4-(4-methoxyphenoxy)cyclohexyl)-5-(4-(4-(trifluoromethyl)phenoxy)piperidine-1-carbonyl)picolinamide]",< 500
14,"N#Cc1ccc(CN2CCC(NC(=O)c3ccc(N4CCC(Oc5ccc(C(F)(F)F)cc5)CC4)cn3)CC2)cc1 [Compound 301, N-(1-(4-cyanobenzyl)piperidin-4-yl)-5-(4-(4-(trifluoromethyl)phenoxy)piperidin-1-yl)picolinamide]",< 500
15,"COc1ccc(CN2CCC(NC(=O)c3ccc(C(=O)N4CCC(C(=O)c5ccc(OC)cc5)CC4)nc3)CC2)cc1 [Compound 318, 6-(4-(4-methoxybenzoyl)piperidine-1-carbonyl)-N-(1-(4-methoxybenzyl)piperidin-4-yl) nicotinamide]",< 500
